This experiment addresses T1, HIV-integrase (Human immunodeficiency virus type 1 group M subtype B, UniProt P12497).
T1 construct: Recombinant integrase (0.26 ng) was incubated with the beads
As to the kind of experiment: HIV-Integrase Inhibition Activity (SPA bead integration assay with P33 labeled target DNA). Particulars: recombinant integrase, class symbols; read-out: in vitro activity. In kind it is biochemical. The essentials: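 Strand integration read as bead-proximity CPM after P33 target DNA (0.1 fmol) and inhibitor were added to washed integrase–substrate DNA complexes on SPA beads. Enzyme bound 90 min at 37° C; EDTA (10 mM final) terminated reaction; IC50 graded A/B/C.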
For the molecule `COc1cc(CNC(=O)c2nc3n(c(=O)c2O)CC2CCC3(N(C)C(=O)C(=O)N(C)C)CC2)ccc1F` [Example 160, N-(2-((4-Fluoro-3-methoxybenzyl)carbamoyl)-3-hydroxy-4-oxo-6,7,8,9-tetrahydro-7,10-ethanopyrimido[1,2-a]azepin-10(4H)-yl)-N,N′,N′-trimethylethanediamide], the IC50 was below 10 nM.

As for `CN(C)C(=O)C(=O)N(C)C12CCC(CC1)Cn1c2nc(C(=O)NCc2ccc3c(c2)OCO3)c(O)c1=O` [Example 161, N-(2-((1,3-Benzodioxol-5-ylmethyl)carbamoyl)-3-hydroxy-4-oxo-6,7,8,9-tetrahydro-7,10-ethanopyrimido[1,2-a]azepin-10(4H)-yl)-N,N′,N′-trimethylethanediamide], the IC50 is below 10 nM.

On to `Cc1c(F)cc(Br)c(CNC(=O)c2nc3n(c(=O)c2O)CC2CCC3(N(C)C(=O)C(=O)N(C)C)CC2)c1Br` [Example 162, N-(2-((2,6-Dibromo-4-fluoro-3-methylbenzyl)carbamoyl)-3-hydroxy-4-oxo-6,7,8,9-tetrahydro-7,10-ethanopyrimido[1,2-a]azepin-10(4H)-yl)-N,N′,N′-trimethylethanediamide], for which the IC50 is below 10 nM.

`CN(C(=O)C(=O)N1CC[C@@H](F)C1)C12CCC(CC1)Cn1c2nc(C(=O)NCc2ccc(F)cc2)c(O)c1=O` [Example 163, N-(4-Fluorobenzyl)-10-((((3R)-3-fluoro-1-pyrrolidinyl)(oxo)acetyl)(methyl)amino)-3-hydroxy-4-oxo-4,6,7,8,9,10-hexahydro-7,10-ethanopyrimido[1,2-a]azepine-2-carboxamide]: the IC50 is below 10 nM.

Consider `Cc1cc(CNC(=O)c2nc3n(c(=O)c2O)CC2CCC3(N(C)C(=O)C(=O)N3CC[C@@H](F)C3)CC2)ccc1F` [Example 164, N-(4-Fluoro-3-methylbenzyl)-10-((((3R)-3-fluoro-1-pyrrolidinyl)(oxo)acetyl)(methyl)amino)-3-hydroxy-4-oxo-4,6,7,8,9,10-hexahydro-7,10-ethanopyrimido[1,2-a]azepine-2-carboxamide], for which the IC50 was below 10 nM.

Regarding `CN(CC1CCCO1)C(=O)C(=O)N(C)C12CCC(CC1)Cn1c2nc(C(=O)NCc2ccc(F)cc2)c(O)c1=O` (stereo not drawn) [Example 165, N-(2-((4-Fluorobenzyl)carbamoyl)-3-hydroxy-4-oxo-6,7,8,9-tetrahydro-7,10-ethanopyrimido[1,2-a]azepin-10(4H)-yl)-N,N′-dimethyl-N′-(tetrahydro-2-furanylmethyl)ethanediamide], the IC50 is below 10 nM.

`Cc1cc(CNC(=O)c2nc3n(c(=O)c2O)CC2CCC3(N(C)C(=O)C(=O)N(C)CC3CCCO3)CC2)ccc1F` (stereo not drawn) [Example 166, N-(2-((4-Fluoro-3-methylbenzyl)carbamoyl)-3-hydroxy-4-oxo-6,7,8,9-tetrahydro-7,10-ethanopyrimido[1,2-a]azepin-10(4H)-yl)-N,N′-dimethyl-N′-(tetrahydro-2-furanylmethyl)ethanediamide]: the IC50 was below 10 nM.

Regarding `COCCN(C)C(=O)C(=O)N(C)C12CCC(CC1)Cn1c2nc(C(=O)NCc2ccc(F)cc2)c(O)c1=O` [Example 167, N-(2-((4-Fluorobenzyl)carbamoyl)-3-hydroxy-4-oxo-6,7,8,9-tetrahydro-7,10-ethanopyrimido[1,2-a]azepin-10(4H)-yl)-N′-(2-methoxyethyl)-N,N′-dimethylethanediamide], the IC50 was below 10 nM.

Regarding `COCCN(C)C(=O)C(=O)N(C)C12CCC(CC1)Cn1c2nc(C(=O)NCc2ccc(F)c(C)c2)c(O)c1=O` [Example 168, N-(2-((4-Fluoro-3-methylbenzyl)carbamoyl)-3-hydroxy-4-oxo-6,7,8,9-tetrahydro-7,10-ethanopyrimido[1,2-a]azepin-10(4H)-yl)-N′-(2-methoxyethyl)-N,N′-dimethylethanediamide], the IC50 is below 10 nM.

The record behind these values is patent US8129398B2 (priority 2008, dated 2012).
